{
  "source": "patent US20240207454A1",
  "about": "“NEURO-BEHAVIORAL ASSAY FOR PHYSIOLOGICAL EVALUATION OF WATER-SOLUBLE ANESTHETICS” (Northeastern University, priority 2022, published 2024)",
  "system": "Apteronotus leptorhynchus",
  "experiment": "Neuro-behavioral assay: effect on EOD frequency",
  "assay_type": "in vivo",
  "details": "for Median EOD frequency change, 30-min interval before vs 15-min interval after start of anesthesia: Median / EOD frequency lower than median baseline frequency immediately after return to isolation tank (range among fish) / EOD frequency lower than median baseline frequency immediately after return to isolation tank (median): n=8 fish; for Recovery model (Eq. 3) parameter a: normalized frequency; for EOD frequency lower than median baseline frequency immediately after return to isolation tank (range among fish): 2.5% urethane or 0.02% MS-222 immersion until fin and opercular movement ceased; for EOD frequency lower than median baseline frequency immediately after return to isolation tank (median): 2.5% urethane or 0.02% MS-222 immersion; for Recovery model parameter a (ratio EOD frequency vs baseline at t=0), estimate / Recovery model parameter b, estimate / Recovery model parameter c, estimate / Recovery model parameter d, estimate: robust nonlinear regression, Equation 1, 2.5% urethane or 0.02% MS-222",
  "description": "For the assay, adult brown ghost knifefish (Apteronotus leptorhynchus; Gymnotiformes, Teleostei), with total lengths of approximately 12-15 cm, are used. The fish are imported from their natural habitat in South and Central America.\nAt least 1 week before using the assay for the first run, the fish is transferred from a community tank to an isolation tank (50 cm×30 cm×30 cm) equipped with aquarium thermostat heaters and air-driven corner filters. The fish is kept in aquarium water prepared by adding a mixture of inorganic salts (81 mmol/L MgSO4·7H2O; 107 mmol/L KCl; 12 mmol/L NaH2PO4·2H2O; 732 mmol/L CaSO4·2H2O) to deionized water until a water conductivity of approximately 150-300 μS/cm is reached. Water temperature, determined during the experiments every 10 min with a calibrated high-precision (accuracy+0.05° C.) digital thermometer, is kept in the range of 25.0-28.0° C. across all assays. Variation is limited to 1.0° C. in an individual assay. A 12:12 h light:dark photoperiod is maintained with a timer. The fish are fed red mosquito larvae daily, after the assay run on that day has been completed.\nIn each isolation tank, an opaque cylindrical plastic tube (length: 190 mm; inner diameter: 38 mm; outer diameter: 42 mm) provides shelter and is readily accepted by the fish, particularly during the light phase, when individuals of this nocturnal species spend most of the time in shelter places. A pair of stainless-steel electrodes is mounted on the inside of each tube (see section 4.1.2, ‘EOD recording,’ below).\nDifferential recording of the fish's EOD is done through the pair of stainless-steel electrodes built into the shelter tube (FIG. 1). […] This allows the fish's EOD to be recorded continuously without interruptions. At the same time, mesh size is chosen such that sustained water flow through the tube is ensured. A strip of stainless steel is placed in the tank to serve as a ground electrode.\nThe signal is AC amplified (gain: 30×; low-pass filter: none; high-pass filter: 200 Hz) and then digitized at a sampling rate of 50 kHz.\nThe sampled time-voltage data (ti, vi), i=1, . . . , N, are filtered in subsequent, 1-s-long windows using a bandpass filter with frequency band [0.8, 1.2]×f0, where f0 is the fundamental frequency determined from the power spectrum of the signal within the associated time window.\nThe filtered time series data (ti, Vi), i=1, . . . , N, are further processed to determine the EOD frequency at a higher time resolution. First, tuple j containing the indices of all instants where the filtered signal changes sign to a positive value is determined:\nThen, tuple t^+ of time instances when the signal crosses the time axis upwards is calculated using interpolation:\nHere M=|j| denotes the number of elements in j (the number of all crossings). Finally, time-frequency pairs (Tk, fk) are computed as\nfor k=1, . . . , M−m. Here m=10 is the number of averaged time periods used for EOD frequency calculation.\nSince the EOD frequency of A. leptorhynchus is temperature dependent, all measured frequencies are adjusted to a reference temperature (arbitrarily chosen to be 26° C.) so that discharge frequencies at different water temperatures can be compared. This adjustment of a frequency f1 (in Hz) measured at a temperature T1 (in ° C.) to the reference temperature T2=26° C. is calculated as\nwhere f2 is the expected frequency at T2 and Q10=1.56, as determined empirically.\nThe experimental design is outlined in FIG. 2. To determine the baseline EOD frequency, the fish's EOD was recorded for 30 min. Then, the fish was transferred into a glass beaker containing either 2.5% urethane (Acros Organics, New Jersey, USA) or 0.02% MS-222 (Western Chemical, Washington, USA), each dissolved in water from the fish's isolation tank. As a control, the fish was moved into an identical glass beaker containing aquarium water only. […]",
  "data": [
    {"smiles": "C=CCc1ccc(O)c(OC)c1", "note": "[eugenol]", "values": [
      {"measurement": "Maximum EOD frequency drop vs median baseline frequency (median)", "setting": "60 μL/L eugenol, 5 min, 8 fish", "value": 232, "unit": "Hz"},
      {"measurement": "Maximum EOD frequency drop vs median baseline frequency (range)", "setting": "60 μL/L eugenol, 5 min, 8 fish", "value": "184-277 Hz"},
      {"measurement": "Latency until fish started to lower the EOD frequency after transfer into the anesthetic solution", "setting": "eugenol 30-60 μL/L", "value": "1 to 2", "unit": "min"},
      {"measurement": "Recovery model (Eq. 3) parameter b", "setting": "eugenol 30 μL/L", "value": 1.4568, "unit": "min"},
      {"measurement": "Recovery model (Eq. 3) parameter c", "setting": "eugenol 30 μL/L", "value": 1.0089},
      {"measurement": "Recovery model (Eq. 3) parameter d", "setting": "eugenol 30 μL/L", "value": "-3.2299e-05", "unit": "min⁻¹"},
      {"measurement": "Difference in the largest normalized EOD frequency drops: Median", "setting": "eugenol 30 μL/L vs. Control", "value": "−0.1650"},
      {"measurement": "Median EOD frequency change, 30-min interval before vs 15-min interval after start of anesthesia: Median", "setting": "eugenol 30 μL/L, 5 min", "value": "−48.18", "unit": "Hz"},
      {"measurement": "Recovery model (Eq. 3) parameter a", "setting": "eugenol 30 μL/L", "value": "0.7465 1"},
      {"measurement": "Recovery model (Eq. 3) parameter b", "setting": "eugenol 45 μL/L", "value": 1.4064, "unit": "min"},
      {"measurement": "Recovery model (Eq. 3) parameter c", "setting": "eugenol 45 μL/L", "value": 1.0084},
      {"measurement": "Recovery model (Eq. 3) parameter d", "setting": "eugenol 45 μL/L", "value": "-3.3821e-05", "unit": "min⁻¹"},
      {"measurement": "Difference in the largest normalized EOD frequency drops: Median", "setting": "eugenol 45 μL/L vs. 30 μL/L", "value": "−0.0715"},
      {"measurement": "Median EOD frequency change, 30-min interval before vs 15-min interval after start of anesthesia: Median", "setting": "eugenol 45 μL/L, 5 min", "value": "−65.54", "unit": "Hz"},
      {"measurement": "Recovery model (Eq. 3) parameter a", "setting": "eugenol 45 μL/L", "value": "0.6344 1"},
      {"measurement": "Recovery model (Eq. 3) parameter b", "setting": "eugenol 60 μL/L", "value": 1.5816, "unit": "min"},
      {"measurement": "Recovery model (Eq. 3) parameter c", "setting": "eugenol 60 μL/L", "value": 1.0131},
      {"measurement": "Recovery model (Eq. 3) parameter d", "setting": "eugenol 60 μL/L", "value": "-6.2321e-05", "unit": "min⁻¹"},
      {"measurement": "Difference in the largest normalized EOD frequency drops: Median", "setting": "eugenol 60 μL/L vs. 45 μL/L", "value": "−0.0349"},
      {"measurement": "Median EOD frequency change, 30-min interval before vs 15-min interval after start of anesthesia: Median", "setting": "eugenol 60 μL/L, 5 min", "value": "−88.65", "unit": "Hz"},
      {"measurement": "Recovery model (Eq. 3) parameter a", "setting": "eugenol 60 μL/L", "value": "0.5649 1"}
    ]},
    {"smiles": "CCOC(=O)c1cccc(N)c1", "note": "[MS-222, 3-aminobenzoic acid ethyl ester methanesulfonate]", "values": [
      {"measurement": "EOD frequency lower than median baseline frequency immediately after return to isolation tank (range among fish)", "value": "129-279 Hz"},
      {"measurement": "EOD frequency lower than median baseline frequency immediately after return to isolation tank (median)", "value": 168, "unit": "Hz"},
      {"measurement": "Recovery model parameter a (ratio EOD frequency vs baseline at t=0), estimate", "setting": "8 fish", "value": "0.3584 1"},
      {"measurement": "Recovery model parameter b, estimate", "setting": "8 fish", "value": 0.52, "unit": "min"},
      {"measurement": "Recovery model parameter c, estimate", "setting": "8 fish", "value": 1.0024},
      {"measurement": "Recovery model parameter d, estimate", "setting": "8 fish", "value": "-9.0311e-06", "unit": "min⁻¹"}
    ]},
    {"smiles": "CCOC(N)=O", "note": "[urethane]", "values": [
      {"measurement": "EOD frequency lower than median baseline frequency immediately after return to isolation tank (range among fish)", "value": "104-142 Hz"},
      {"measurement": "EOD frequency lower than median baseline frequency immediately after return to isolation tank (median)", "value": 133, "unit": "Hz"},
      {"measurement": "EOD frequency drop during first phase of anesthesia", "setting": "2.5% urethane, first phase lasting roughly 30 s", "value": "approximately 100 Hz"},
      {"measurement": "Recovery model parameter a (ratio EOD frequency vs baseline at t=0), estimate", "setting": "8 fish", "value": "0.8428 1"},
      {"measurement": "Recovery model parameter b, estimate", "setting": "8 fish", "value": 21.333, "unit": "min"},
      {"measurement": "Recovery model parameter c, estimate", "setting": "8 fish", "value": 1.0228},
      {"measurement": "Recovery model parameter d, estimate", "setting": "8 fish", "value": "-2.8717e-05", "unit": "min⁻¹"}
    ]}
  ]
}
